Experimental findings from ChEMBL document CHEMBL4616582, “Green recipes to quinoline: A review” (Eur J Med Chem, 2019) are described below.

Structures are written as SMILES. Converted amounts (≈) assume the structure as drawn.

One assay has as its system Bacillus subtilis. The assay can be described thus: Antibacterial activity against Bacillus subtilis MTCC 121 after 24 hrs by agar well diffusion method. The class given is functional. As to conditions: MTCC 121, 24 h.
With `O=C1CCCC2=C1C1(C(=O)N2c2ccc(Br)cc2)C2=C(Nc3ccc(Br)cc31)c1ccccc1C2=O` (stereo not drawn), the minimum inhibitory concentration (MIC) came to 8 µg/mL (≈ 13.3 µM). For the molecule `CC1(C)CC(=O)C2=C(C1)N(c1ccccc1)C(=O)C21C2=C(Nc3ccccc31)c1ccccc1C2=O` (stereo not drawn), the MIC worked out at 8 µg/mL (≈ 16.9 µM). Turning to `Cc1ccc(N2C(=O)C3(C4=C(Nc5ccc(Br)cc53)c3ccccc3C4=O)C3=C2CCCC3=O)cc1` (stereo not drawn), the MIC stood at 8 µg/mL (≈ 14.9 µM). In turn, `O=C1CCCC2=C1C1(C(=O)N2C2CCCCC2)C2=C(Nc3ccc(Br)cc31)c1ccccc1C2=O` (stereo not drawn) displayed an MIC of 8 µg/mL (≈ 15.1 µM). On the same count and under the same terms, with `COc1ccc(N2C(=O)C3(C4=C(Nc5ccc(Br)cc53)c3ccccc3C4=O)C3=C2CCCC3=O)cc1` (stereo not drawn) the figure was 8 µg/mL (≈ 14.5 µM); with `O=C1CCCC2=C1C1(C(=O)N2c2ccc(Br)cc2)C2=C(Nc3ccc([N+](=O)[O-])cc31)c1ccccc1C2=O` (stereo not drawn), 8 µg/mL (≈ 14.1 µM); with `CC1(C)CC(=O)C2=C(C1)N(c1ccc(Cl)cc1)C(=O)C21C2=C(Nc3ccccc31)c1ccccc1C2=O` (stereo not drawn), 8 µg/mL (≈ 15.8 µM). For `CC1(C)CC(=O)C2=C(C1)N(c1ccc(Br)cc1)C(=O)C21C2=C(Nc3ccccc31)c1ccccc1C2=O` (stereo not drawn), the MIC was 8 µg/mL (≈ 14.5 µM).

`O=C1CCCC2=C1C1(C(=O)N2c2ccc(Cl)cc2)C2=C(Nc3ccc([N+](=O)[O-])cc31)c1ccccc1C2=O` (stereo not drawn) showed an MIC of 8 µg/mL (≈ 15.3 µM). As for `CC1(C)CC(=O)C2=C(C1)N(c1ccc(Cl)cc1)C(=O)C21C2=C(Nc3ccc([N+](=O)[O-])cc31)c1ccccc1C2=O` (stereo not drawn), the lowest concentration to inhibit growth (MIC) was 8 µg/mL (≈ 14.5 µM). With `O=C1CCCC2=C1C1(C(=O)N2c2ccc(Cl)cc2)C2=C(Nc3ccccc31)c1ccccc1C2=O` (stereo not drawn), the MIC is 8 µg/mL (≈ 16.7 µM).

`O=C1CCCC2=C1C1(C(=O)N2c2ccccc2)C2=C(Nc3ccc([N+](=O)[O-])cc31)c1ccccc1C2=O` (stereo not drawn): it took 8 µg/mL (≈ 16.3 µM) to inhibit growth (MIC). On the same count and under the same terms, with `CC1(C)CC(=O)C2=C(C1)N(c1ccco1)C(=O)C21C2=C(Nc3ccc([N+](=O)[O-])cc31)c1ccccc1C2=O` (stereo not drawn) the figure was 8 µg/mL (≈ 15.8 µM); with `CC1(C)CC(=O)C2=C(C1)N(c1ccccc1)C(=O)C21C2=C(Nc3ccc(Br)cc31)c1ccccc1C2=O` (stereo not drawn), 8 µg/mL (≈ 14.5 µM). As for `COc1ccc(N2C(=O)C3(C4=C(Nc5ccccc53)c3ccccc3C4=O)C3=C2CC(C)(C)CC3=O)cc1` (stereo not drawn), the MIC came out at 8 µg/mL (≈ 15.9 µM).

As to `O=C(O)c1cn(C2CC2)c2cc(N3CCNCC3)c(F)cc2c1=O` [CIPROFLOXACIN], the MIC was determined as 6.25 µg/mL (≈ 18.9 µM). In turn, `Cc1ccc(N2C(=O)C3(C4=C(Nc5ccccc53)c3ccccc3C4=O)C3=C2CC(C)(C)CC3=O)cc1` (stereo not drawn) gave an MIC of 8 µg/mL (≈ 16.4 µM). In the case of `O=C1CCCC2=C1C1(C(=O)N2c2ccccc2)C2=C(Nc3ccc(Br)cc31)c1ccccc1C2=O` (stereo not drawn), inhibition of growth (MIC) required 8 µg/mL (≈ 15.3 µM). Take `CCCCN1C(=O)C2(C3=C(Nc4ccc(Br)cc42)c2ccccc2C3=O)C2=C1CC(C)(C)CC2=O` (stereo not drawn): the lowest concentration to inhibit growth (MIC) was 8 µg/mL (≈ 15.1 µM). For `CC1(C)CC(=O)C2=C(C1)N(c1ccco1)C(=O)C21C2=C(Nc3ccc(Br)cc31)c1ccccc1C2=O` (stereo not drawn), it took 8 µg/mL (≈ 14.8 µM) to inhibit growth (MIC). On to `CC1(C)CC(=O)C2=C(C1)N(c1ccccc1)C(=O)C21C2=C(Nc3ccc([N+](=O)[O-])cc31)c1ccccc1C2=O` (stereo not drawn), for which the lowest concentration to inhibit growth (MIC) was 8 µg/mL (≈ 15.5 µM).

`Cc1ccc(N2C(=O)C3(C4=C(Nc5ccc([N+](=O)[O-])cc53)c3ccccc3C4=O)C3=C2CCCC3=O)cc1` (stereo not drawn) had an MIC of 8 µg/mL (≈ 15.9 µM). The same measure, in the same setting: with `O=C1CCCC2=C1C1(C(=O)N2c2ccccc2)C2=C(Nc3ccccc31)c1ccccc1C2=O` (stereo not drawn) the figure was 8 µg/mL (≈ 18 µM).

The next assay concerns HepG2. The assay can be described thus: Cytotoxicity against human HepG2 cells assessed as reduction in cell viability by MTT assay. It is filed as functional, cell-based.
Details: not given
`O=c1c2ccc(Br)cc2n(-c2ccccc2)c2ss/c(=N\c3ccccc3)c12`: the IC50 was 0.984 µM. `CC(=O)c1ccccc1Cl`: the IC50 was found to be 0.984 µM. With `CC(=O)c1ccccc1` [ACETOPHENONE], the IC50 turned out to be 0.984 µM. `CC(=O)c1ccc(Br)cc1`: the IC50 is 0.984 µM. As to `CC(=O)c1cc(F)c(Cl)cc1Cl`, the IC50 worked out at 0.984 µM.

As for `O=c1c2cc(Cl)c(Cl)cc2n(-c2ccccc2)c2ss/c(=N\c3ccccc3)c12`, the IC50 turned out to be 0.984 µM.

The next assay concerns B16-F10. Nature of the assay: Cytotoxicity against mouse B16F10 cells assessed as reduction in cell viability. It is filed as functional, cell-based.
Details: not given
As to `O=c1oc2ccccc2c2nc3c(ccc4cc[nH]c43)c(-c3ccc(Cl)cc3)c12`, the IC50 amounted to 70.7 µM. Still for that read-out and setting: with `O=Cc1ccc(C(F)(F)F)cc1` the figure was 70.7 µM. Regarding `O=Cc1ccc(Cl)cc1Cl`, the IC50 was determined as 70.7 µM. Still for that read-out and setting: with `O=Cc1ccc(Cl)cc1` the figure was 70.7 µM; with `O=Cc1cccc2ccccc12`, 70.7 µM; with `COc1ccc(C=O)cc1` [ANISALDEHYDE], 70.7 µM. In the case of `O=Cc1ccc(O)cc1` [4-HYDROXYBENZALDEHYDE], the IC50 is 70.7 µM. With `O=Cc1ccccc1` [BENZALDEHYDE], the IC50 is 70.7 µM. Turning to `O=c1cc(O)c2cc(Cl)ccc2o1`, the IC50 was 70.7 µM.

As to `O=c1oc2ccccc2c2nc3c(ccc4cc[nH]c43)c(-c3ccc(O)cc3)c12`, the IC50 is 70.7 µM. In the case of `O=c1oc2ccccc2c2nc3c(ccc4cc[nH]c43)c(-c3c(Cl)cccc3Cl)c12`, the IC50 was 70.7 µM. `O=Cc1cccc(Br)c1`: the IC50 came out at 70.7 µM.

Take `O=c1oc2ccccc2c2nc3c(ccc4cc[nH]c43)c(-c3ccccc3Br)c12`: the IC50 was 70.7 µM. For `O=Cc1ccc(F)cc1`, the IC50 is 70.7 µM. For `O=c1cc(O)c2cc(F)ccc2o1`, the IC50 was found to be 70.7 µM.

On to `COc1ccc(-c2c3ccc4cc[nH]c4c3nc3c2c(=O)oc2ccccc23)cc1`, for which the IC50 came to 70.7 µM. As to `O=c1oc2ccccc2c2nc3c(ccc4cc[nH]c43)c(-c3ccc(C(F)(F)F)cc3)c12`, the IC50 is 70.7 µM.

Turning to `O=c1oc2ccccc2c2nc3c(ccc4cc[nH]c43)c(-c3ccc(Br)cc3)c12`, the IC50 was determined as 70.7 µM. As for `O=Cc1ccc(Br)cc1`, the IC50 came to 70.7 µM. In the case of `O=c1cc(O)c2cc(Br)ccc2o1`, the IC50 came to 70.7 µM. On the same count and under the same terms, with `O=c1oc2ccccc2c2nc3c(ccc4cc[nH]c43)c(-c3ccccn3)c12` the figure was 70.7 µM.

`O=c1oc2ccccc2c2nc3c(ccc4cc[nH]c43)c(-c3ccc([N+](=O)[O-])cc3)c12`: the IC50 was 70.7 µM.

As for `O=c1oc2ccccc2c2nc3c(ccc4cc[nH]c43)c(-c3ccc(F)cc3)c12`, the IC50 was found to be 70.7 µM. On to `O=Cc1cccc(Cl)c1Cl`, for which the IC50 was found to be 70.7 µM.

As for `Cc1ccc(-c2c3ccc4cc[nH]c4c3nc3c2c(=O)oc2ccccc23)cc1`, the IC50 is 70.7 µM. Turning to `O=Cc1ccccn1` [2-PYRIDINECARBOXALDEHYDE], the IC50 turned out to be 70.7 µM. Take `O=c1oc2ccccc2c2nc3c(ccc4cc[nH]c43)c(-c3cccc(Cl)c3Cl)c12`: the IC50 turned out to be 70.7 µM. For `O=Cc1ccc([N+](=O)[O-])cc1`, the IC50 turned out to be 70.7 µM. Still for that read-out and setting: with `O=Cc1ccccc1Br` the figure was 70.7 µM; with `O=Cc1cccnc1Cl` [2-CHLORONICOTINALDEHYDE], 70.7 µM; with `Cc1ccc(C=O)cc1`, 70.7 µM. Still for that read-out and setting: with `O=c1oc2ccccc2c2nc3c(ccc4cc[nH]c43)c(-c3ccc(Cl)cc3Cl)c12` the figure was 70.7 µM.

With `O=c1oc2ccccc2c2nc3c(ccc4cc[nH]c43)c(-c3cccnc3Cl)c12`, the IC50 is 70.7 µM.

As to `O=c1oc2ccccc2c2nc3c(ccc4cc[nH]c43)c(-c3ccccc3)c12`, the IC50 was 70.7 µM. In the case of `O=c1oc2ccccc2c2nc3c(ccc4cc[nH]c43)c(-c3cccc4ccccc34)c12`, the IC50 was determined as 70.7 µM. Still for that read-out and setting: with `Nc1cccc2cc[nH]c12` the figure was 70.7 µM.

As to `O=Cc1c(Cl)cccc1Cl`, the IC50 came out at 70.7 µM. On the same count and under the same terms, with `O=c1oc2ccccc2c2nc3c(ccc4cc[nH]c43)c(-c3cccc(Br)c3)c12` the figure was 70.7 µM. As for `O=c1cc(O)c2ccccc2o1` [4-HYDROXYCOUMARINS], the IC50 stood at 70.7 µM.
